# Source: PMC5920042, “KH176 Safeguards Mitochondrial Diseased Cells from Redox Stress-Induced Cell Death by Interacting with the Thioredoxin System/Peroxiredoxin Enzyme Machinery” (Scientific Reports, 2018)
# Legend:
# [1] = test system: primary human skin fibroblasts; test: Cellular superoxide detection by HEt oxidation; type: cell-based; conditions: basal, 24 h compound; read-out: EC50 decrease of basal cellular superoxide levels (HEt)
# Protocol: The cells were seeded at a density of 3 × 10^3 cells/well into 96-wells black plates. After 24 h, the cells were incubated with different amounts of KH176(m) for 24 h. For the cellular superoxide measurements cells were then washed with M199 without phenol red and incubated with HEt (#D11347, ThermoFisher) in this same medium for 10 minutes. […] Total cellular fluorescence per well was normalized on the incubation with the probe but without compound (vehicle set as 100%). Experiments were performed at least three times with 3 wells per experiment.
# [2] = test system: primary human skin fibroblasts; test: CumOOH induced lipid peroxidation (bodipy 581/591 C11); type: cell-based; conditions: 30 µM cumOOH
# Protocol: The cells were seeded at a density of 3 × 10^3 cells/well into 96-wells black plates. After 24 h, the cells were coincubated with 500 nM bodipy 581/591 C11 (#D3861, Thermo Fisher) and different amounts of KH compound in M199 without phenol red. This medium was used in all subsequent washes and incubations. After 30 min. incubation the cells were washed twice and subsequently incubated with 30 μM cumene hydroperoxide (cumOOH). For background subtractions cells with the dye but without cumOOH were used. After 30 minutes incubation and two washes oxidized bodipy 581/591 C11 was quantified on an automated bioimager (BD Pathway 855), by using a 20x objective and Ex. 488/10 nm, Em. FURA/FITC. Total cellular fluorescence per well was normalized on the number of cellular pixels/well and normalized on the incubation with probe and cumOOH but without compound (vehicle set as 100%). Experiments were performed at least three times with 3 wells per experiment.
# [3] = test system: P4 cell line; test: GSH measurements (GSH-Glo) under BSO; type: cell-based, human; conditions: increasing BSO 24 h, 1 µM compound
# Protocol: Cells were seeded at a density of 4 × 10^3 cells/well into 96-wells white plates (#655098, Greiner Bio-one). After 24 h the cells were treated with semi-logarithmic dilutions of BSO up to a concentration of 100 µM alone or in co-incubation with a fixed amount of the test compound. 24 h after the treatment, GSH levels were measured with the GSH-Glo™ Glutathione Assay (# V6911, Promega) according to the manufacturer instructions. Luminescence was measured on a scanning microplate reader (BMG FLUOstar Omega).
# [4] = biological target: T1, human Prdx2 (Homo sapiens, UniProt P32119); test: Surface Plasmon Resonance binding; conditions: immobilized Prdx2, SPR
# T1 construct: purchased Novus Biological NBC1-25855
# T1 sequence (P32119 1-198): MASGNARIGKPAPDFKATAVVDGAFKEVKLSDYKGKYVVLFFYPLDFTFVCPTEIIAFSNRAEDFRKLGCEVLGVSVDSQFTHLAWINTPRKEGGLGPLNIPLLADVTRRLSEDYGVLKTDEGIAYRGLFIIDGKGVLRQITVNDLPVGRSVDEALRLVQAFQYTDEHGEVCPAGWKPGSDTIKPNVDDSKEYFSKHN
# Protocol: Prior to protein immobilization all proteins were dialyzed against HBS-E (10 mM Hepes, 150 mM NaCl, 3 mM EDTA) buffer that was previously filtered through a 0.45 µM membrane using dialyze slide according to the manufacturer instruction. Human recombinant proteins peroxiredoxin 2 (Novus Biological NBC1-25855) and CCDC101 (Abcam Ab124547) were immobilized on CM5 (carboxymethylated dextran covalently attached to a gold surface) using the amine coupling method according to manufacturer’s recommendation (Biacore, GE Healthcare). Briefly the CM5 surface was activated with the mixture of EDC/NHS. Recombinant proteins at dilution 1 µg/ml in a corresponding buffer i.e. Peroxiredoxin 2 and CCDC101 in sodium acetate buffer 100 mM (pH 4.9). The control channel was activated with EDC/NHS. All channels were thereafter saturated with 0.1 M ethanolamine solution. KH176 andKH176m were solubilized in HBSS at stock solution 1 mM. They were thereafter further diluted in HBSS to final concentrations 0.31e-6M, 0.62e-6M, 1.25e-6M, 2.5e-6M and 5.0e-6M and injected over the flow cells at a flow rate equal to […] for 2 min, followed by a dissociation phase of 4 min. The sensor chip surface was regenerated with 1 mM HCl. The specific binding profiles were obtained after subtracting the response signal from the control empty channel and from blank-buffer injection. The specific binding was calculated using Biaeval 3 software (Biacore, GE Healthcare) with the postulate of 1:1 ligand/analyte interaction. Based on the Chi^2 value in regard to the Rmax (less than 10%) and the difference interval ±2.5 RU theoretic fitting compared to experimental results, best fitting algorithm between Langmuir or drifting base line was applied.
# [5] = Single dose pharmacokinetics and bioavailability study; type: in vivo, male Sprague Dawley rats; conditions: rat, plasma
# Protocol: (§1) Pharmacokinetics and toxicokinetics measurements were performed by the commercial Contract Research Organizations Sai Life Sciences and WuXi AppTec, respectively, according to their standard protocols and in accordance with relevant guidelines and regulations. C57 BL/6 mice, Sprague Dawley rats, and Beagle dogs were studied.
# [6] = 28-day repeat oral dose toxicity study, toxicokinetics; type: in vivo, Sprague Dawley rats; conditions: rat
# Protocol: as §1
# [7] = KH176 25 mg/kg/dose BID oral, F, Day 1, plasma
# [8] = KH176 25 mg/kg/dose BID oral, F, Day 28, plasma
# [9] = KH176 25 mg/kg/dose BID oral, M, Day 1, plasma
# [10] = KH176 25 mg/kg/dose BID oral, M, Day 28, plasma
# [11] = KH176 75 mg/kg/dose BID oral, F, Day 1, plasma
# [12] = KH176 75 mg/kg/dose BID oral, F, Day 28, plasma
# [13] = KH176 75 mg/kg/dose BID oral, M, Day 1, plasma
# [14] = KH176 75 mg/kg/dose BID oral, M, Day 28, plasma
# [15] = KH176 250 mg/kg/dose BID oral, F, Day 1, plasma
# [16] = KH176 250 mg/kg/dose BID oral, F, Day 28, plasma
# [17] = KH176 250 mg/kg/dose BID oral, M, Day 1, plasma
# [18] = KH176 250 mg/kg/dose BID oral, M, Day 28, plasma
structure (smiles),measurement,setting,value
CC1=C(C)C(=O)C(CC[C@](C)(O)C(=O)N[C@@H]2CCCNC2)=C(C)C1=O [KH176m],EC50,[1],1700 nM
same,"Potency (IC50) of KH176m relative to KH176, lipid peroxidation",[2],about 1000 fold
same,IC50,[2]; bodipy 581/591 C11,71 nM
same,GSH level under BSO,[3],remained unaffected
same,Binding to Prdx2,[4]; 0.31-5.0 µM,dose-dependent binding
same,Kd,"[4]; read-out: Affinity (Kd), Langmuir one site model",305 nM
same,AUCINF,[5]; KH176 2 mg/kg i.v.,206.1 ng·h/mL
same,AUClast,[5]; KH176 2 mg/kg i.v.,150.2 ng·h/mL
same,T1/2,[5]; KH176 2 mg/kg i.v.,2.3 h
same,C0 (i.v.),"[5]; KH176 2 mg/kg i.v., back extrapolated",59.7 ng/mL
same,AUCINF,[5]; KH176 10 mg/kg p.o.,1503.2 ng·h/mL
same,AUClast,[5]; KH176 10 mg/kg p.o.,1441.1 ng·h/mL
same,Cmax (p.o.),[5]; KH176 10 mg/kg p.o.,396.4 ng/mL
same,Tmax,[5]; KH176 10 mg/kg p.o.,0.5 h
same,AUC0–24 h Ratio KH176m/KH176,"[6]; KH176 25 mg/kg/dose BID oral, F, Day 1",0.091
same,AUC0–24 h,[6]; [7],1140 ng·h/mL
same,Cmax,[6]; [7],85.9 ng/mL
same,T1/2,[6]; [7],4.5 h
same,AUC0–24 h Ratio KH176m/KH176,"[6]; KH176 25 mg/kg/dose BID oral, F, Day 28",0.074
same,AUC0–24 h,[6]; [8],1410 ng·h/mL
same,Cmax,[6]; [8],123 ng/mL
same,T1/2,[6]; [8],6.2 h
same,AUC0–24 h Ratio KH176m/KH176,"[6]; KH176 25 mg/kg/dose BID oral, M, Day 1",0.075
same,AUC0–24 h,[6]; [9],792 ng·h/mL
same,Cmax,[6]; [9],92.7 ng/mL
same,T1/2,[6]; [9],2.3 h
same,AUC0–24 h Ratio KH176m/KH176,"[6]; KH176 25 mg/kg/dose BID oral, M, Day 28",0.064
same,AUC0–24 h,[6]; [10],993 ng·h/mL
same,Cmax,[6]; [10],126 ng/mL
same,T1/2,[6]; [10],13.3 h
same,AUC0–24 h Ratio KH176m/KH176,"[6]; KH176 75 mg/kg/dose BID oral, F, Day 1",0.073
same,AUC0–24 h,[6]; [11],3090 ng·h/mL
same,Cmax,[6]; [11],203 ng/mL
same,T1/2,[6]; [11],30.9 h
same,AUC0–24 h Ratio KH176m/KH176,"[6]; KH176 75 mg/kg/dose BID oral, F, Day 28",0.067
same,AUC0–24 h,[6]; [12],5120 ng·h/mL
same,Cmax,[6]; [12],305 ng/mL
same,T1/2,[6]; [12],12.9 h
same,AUC0–24 h Ratio KH176m/KH176,"[6]; KH176 75 mg/kg/dose BID oral, M, Day 1",0.080
same,AUC0–24 h,[6]; [13],2640 ng·h/mL
same,Cmax,[6]; [13],187 ng/mL
same,T1/2,[6]; [13],3.5 h
same,AUC0–24 h Ratio KH176m/KH176,"[6]; KH176 75 mg/kg/dose BID oral, M, Day 28",0.067
same,AUC0–24 h,[6]; [14],3100 ng·h/mL
same,Cmax,[6]; [14],265 ng/mL
same,AUC0–24 h Ratio KH176m/KH176,"[6]; KH176 250 mg/kg/dose BID oral, F, Day 1",0.073
same,AUC0–24 h,[6]; [15],7630 ng·h/mL
same,Cmax,[6]; [15],415 ng/mL
same,AUC0–24 h Ratio KH176m/KH176,"[6]; KH176 250 mg/kg/dose BID oral, F, Day 28",0.071
same,AUC0–24 h,[6]; [16],17300 ng·h/mL
same,Cmax,[6]; [16],913 ng/mL
same,AUC0–24 h Ratio KH176m/KH176,"[6]; KH176 250 mg/kg/dose BID oral, M, Day 1",0.055
same,AUC0–24 h,[6]; [17],5170 ng·h/mL
same,Cmax,[6]; [17],312 ng/mL
same,T1/2,[6]; [17],104.4 h
same,AUC0–24 h Ratio KH176m/KH176,"[6]; KH176 250 mg/kg/dose BID oral, M, Day 28",0.066
same,AUC0–24 h,[6]; [18],10400 ng·h/mL
same,Cmax,[6]; [18],777 ng/mL
same,T1/2,[6]; [18],6.5 h
